Test results: patent US12171801B2, “Compositions and related methods for controlling vector-borne diseases” (priority 2017, dated 2024)
“Also recorded” adds a separate entry of the source.

How the values were obtained:
[1] = system: Escherichia coli DH5a; assay: Antibiotic coating and penetration of corn kernels (E. coli growth on LB plates); type: cell-based; conditions: kernels soaked in 2.5 or 0.25 mg/ml
[2] = system: Sitophilus primary endosymbiont (SPE, Candidatus Sodalis pierantonius); assay: Sitophilus primary endosymbiont (SPE) level by qPCR in weevils; type: in vivo, Sitophilus zeamais; conditions: for SPE amount, water-treated weevils versus treated (F0): 18 days of treatment
Method: Sitophilus maize weevils (Sitophilus zeamais) were reared on organic corn at 27.5° C. and 70% relative humidity. Prior to being used for weevil rearing, corn was frozen for 7 days and then tempered to 10% humidity with sterile water. […] Ciprofloxacin (Sigma) stock solutions were made at 25 mg/ml in 0.1 N HCl, sterilized by passing through a 0.22 μm syringe filter, and stored at −20° C. For treatments, the appropriate amount of stock solution was diluted in sterile water.
(§1) Weevil survival was monitored daily for 18 days, after which DNA was extracted from the remaining weevils in each group. Briefly, the weevil body was surface sterilized by dipping the weevil into a 6% bleach solution for approximately 5 seconds. Weevils were then rinsed in sterile water and DNA was extracted from each individual aphid using a DNA extraction kit (Qiagen, DNeasy kit) according to manufacturer's instructions. […]; SEQ ID NO: 243). […]; SEQ ID NO: 245) (Login et al., 2011). qPCR was performed using a qPCR amplification ramp of 1.6 degrees C./s and the following conditions: 1) 95° C. for 10 minutes, 2) 95° C. for 15 seconds, 3) 57° C. for 30 seconds, 4) repeat steps 2-3 40×, 5) 95° C. for 15 seconds, 6) 55° C. for 1 minute, 7) ramp change to 0.15 degrees C./s, 8) 95° C. for 1 second. qPCR data was analyzed using analytic (Thermo Fisher Scientific, QuantStudio Design and Analysis) software.

[3] = system: Sitophilus zeamais; assay: Weevil survival; type: in vivo; conditions: 250 μg/ml or 2.5 mg/ml, 18 days
Excerpt: as §1

[4] = system: Sitophilus zeamais; assay: Development of F1 weevils in dissected corn kernels; type: in vivo; conditions: 250 ug/ml and 2.5 mg/ml
[5] = system: Sitophilus zeamais; assay: Emergence of F1 weevils (fecundity); conditions: 2.5 mg/ml, till day 43

SMILES: O=C(O)c1cn(C2CC2)c2cc(N3CCNCC3)c(F)cc2c1=O [ciprofloxacin]
- E. coli growth on plates with entire soaked corn kernels [1]: inhibition of bacterial growth; also recorded: no bacteria grew
- SPE amount, water-treated weevils versus treated (F0) ([2]; 250 ug/ml): approximately 4 fold higher
- SPE amount, water-treated weevils versus treated (F0) ([2]; 2.5 mg/ml): ~8 fold higher
- SPE level, water-treated F1 weevils versus treated ([2]; 2.5 mg/ml, F1 weevils dissected from corn kernels): approximately 4 fold higher
- weevil survival [3]: all weevils remained alive
- development of F1 weevils [4]: delay in development
- emerged F1 offspring [5]: much less offspring
